Values of other authors in patent publication US20190275119A1, “PROOXIDANT CANCER CHEMO-SUPPRESSORS AND CHEMO-PROTECTORS AND METHODS OF USE RELATED THERETO” (priority 2016, published 2019).

Test system: tumor cells
Details: low concentrations (about 10 μM)

O=CC=Cc1ccccc1OC(=O)c1ccccc1 [BCA, 2′-benzoyl-oxycinnamaldehyde]
growth inhibition and apoptosis of tumor cells: inhibit growth and induce apoptosis of tumor cells

O=CC=Cc1ccccc1O [HCA, 2′-hydroxycinnamaldehyde]
growth inhibition and apoptosis of tumor cells: inhibit growth and induce apoptosis of tumor cells
